Data: patent publication US11260027B2, “Donor organ pre-treatment formulation” (MUSC FOUNDATION FOR RESEARCH DEVELOPMENT, priority 2015, dated 2022)

Assays:
[1] = tested on: HUVEC
Procedure: (§1) Human Umbilical Vein Endothelial Cells (HUVEC), complete endothelial growth medium-2 (EGM-2) and bullet kit were purchased from Lonza (Walkersville, Md.). Cells were grown and maintained in a humidified 37° C. and 5% CO2 atmosphere. Cells were expanded on T75 cm^2 polystyrene flasks to passage 5 and plated onto 6-well plates for experimental assays (Fischer Scientific, Pittsburgh, Pa.). MCEC, a normal mouse cardiac endothelial cell line from Cedarlane (Ontario, Canada), were cultured in Dulbecco's Modified Eagle Medium (DMEM) (Life Technologies, CA) supplemented with 10% fetal bovine serum (FBS) in a 37° C. incubator with humidified room air and 5% CO2.
(§2) M-Per lysis of Ecs was used as an assay control.

[2] = tested on: MCEC
Procedure: as §1, §2

[3] = tested on: aortic allograft; assay: Aortic allograft model of chronic allograft rejection (Balb/c to C57Bl/6); format: in vivo, mouse; conditions: 100 or 1000 ng/ml tested; quantified intimal thickening
Procedure: Male Balb/c (H-2^d) and C57BL/6 (B6;H-2^b) mice (8-10 weeks) were obtained from Jackson laboratory (Bar Harbor, Me.). All mice weighed 25-30 g and were housed under specific pathogen-free conditions at the Medical University of South Carolina (Charleston, S.C.) and were used for transplantation studies. In the following series, transplants to male B6 mice were performed under clean conditions using Balb/c donors in the allograft group (Balb/c to B6, n=20) and B6 donors in the isograft group (B6 to B6, n=10). The mice were anesthetized with intraperitoneal injections of ketamine (75 mg/kg, Lloyd Laboratories, Shenandoah, Iowa, USA) and xylazine (16 mg/kg, Vedco, Inc., St. Joseph, Mo., USA) diluted in sterile normal saline. An operating microscope with 16×magnification was used for the surgical procedure. The cuff used for the anastamosis consisted of a 0.6 mm body and a 0.6 mm extension crafted from a 24 gauge polyimide catheter (inner diameter 0.5 mm, wall thickness 0.025 mm, cat. No. 141-0027, Vention Medical, NH, USA).
After satisfactory anesthetic was administered, the donor mouse was placed in supine position and a midline thoraco-abdominal incision was made. […] For orthotopic transplantation, the bowel was reflected cephalad, the colon was retracted to the animal's left side, and the seminal vesicles and testes were distracted caudally. […]

[4] = target: integrin αVβ3 on human umbilical vein endothelial cells (HUVEC) (human) (UniProt P06756); assay: cell-based or functional assay
Sequence of integrin αVβ3 on human umbilical vein endothelial cells (HUVEC) (human) (P06756 31-1048, chain 1 of 2): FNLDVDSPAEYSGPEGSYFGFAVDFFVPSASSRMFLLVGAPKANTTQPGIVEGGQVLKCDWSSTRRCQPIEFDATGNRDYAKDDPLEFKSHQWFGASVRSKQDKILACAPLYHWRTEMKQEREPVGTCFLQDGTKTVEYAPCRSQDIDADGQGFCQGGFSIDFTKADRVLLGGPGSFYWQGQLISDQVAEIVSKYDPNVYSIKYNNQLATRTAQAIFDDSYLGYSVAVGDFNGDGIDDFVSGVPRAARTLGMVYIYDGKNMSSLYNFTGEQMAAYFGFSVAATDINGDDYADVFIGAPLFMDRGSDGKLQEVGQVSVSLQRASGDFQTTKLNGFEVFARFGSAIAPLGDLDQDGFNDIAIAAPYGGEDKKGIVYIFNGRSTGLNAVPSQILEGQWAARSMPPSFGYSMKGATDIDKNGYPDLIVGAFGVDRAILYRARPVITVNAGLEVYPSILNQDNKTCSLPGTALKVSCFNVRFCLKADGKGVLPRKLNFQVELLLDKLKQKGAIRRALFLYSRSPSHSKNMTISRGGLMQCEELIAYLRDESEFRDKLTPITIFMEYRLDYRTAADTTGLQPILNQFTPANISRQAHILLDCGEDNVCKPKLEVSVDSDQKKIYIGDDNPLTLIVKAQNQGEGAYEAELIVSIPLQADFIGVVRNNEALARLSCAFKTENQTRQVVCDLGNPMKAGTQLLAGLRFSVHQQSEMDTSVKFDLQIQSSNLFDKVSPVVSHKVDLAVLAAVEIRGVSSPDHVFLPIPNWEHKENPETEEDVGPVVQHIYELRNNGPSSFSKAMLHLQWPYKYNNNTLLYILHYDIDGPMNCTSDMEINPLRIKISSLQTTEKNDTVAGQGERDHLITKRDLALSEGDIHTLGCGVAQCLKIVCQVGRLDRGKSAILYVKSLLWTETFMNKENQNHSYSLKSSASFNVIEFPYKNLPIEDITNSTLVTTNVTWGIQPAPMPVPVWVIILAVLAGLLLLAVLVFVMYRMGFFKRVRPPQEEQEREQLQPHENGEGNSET
Sequence of integrin αVβ3 on human umbilical vein endothelial cells (HUVEC) (human) (P05106 27-788, chain 2 of 2, further chain): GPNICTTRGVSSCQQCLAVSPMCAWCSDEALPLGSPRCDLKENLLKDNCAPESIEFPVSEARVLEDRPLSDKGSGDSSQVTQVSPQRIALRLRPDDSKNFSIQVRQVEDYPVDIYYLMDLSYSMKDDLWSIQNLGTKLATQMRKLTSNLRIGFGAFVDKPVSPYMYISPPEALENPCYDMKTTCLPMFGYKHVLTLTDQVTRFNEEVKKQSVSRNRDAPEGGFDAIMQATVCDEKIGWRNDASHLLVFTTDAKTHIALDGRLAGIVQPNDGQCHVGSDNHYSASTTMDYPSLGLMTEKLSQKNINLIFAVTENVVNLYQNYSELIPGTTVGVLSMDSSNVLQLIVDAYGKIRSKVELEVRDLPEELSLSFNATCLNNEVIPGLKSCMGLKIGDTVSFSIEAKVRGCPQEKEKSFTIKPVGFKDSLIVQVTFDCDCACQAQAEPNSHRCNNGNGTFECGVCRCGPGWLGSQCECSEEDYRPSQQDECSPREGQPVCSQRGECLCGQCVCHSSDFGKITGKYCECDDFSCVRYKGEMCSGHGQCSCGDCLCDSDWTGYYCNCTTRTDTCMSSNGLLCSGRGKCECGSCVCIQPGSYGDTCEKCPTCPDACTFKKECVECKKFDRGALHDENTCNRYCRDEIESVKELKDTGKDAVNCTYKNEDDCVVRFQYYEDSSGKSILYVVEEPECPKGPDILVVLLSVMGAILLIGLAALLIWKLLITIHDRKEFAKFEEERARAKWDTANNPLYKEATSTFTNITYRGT

Compound	cell toxicity and death (MTS cell viability) [1]	concentration that did induce toxicity ([1]; human, 6 h) [ng/mL]	cell toxicity and death (MTS cell viability) [2]	concentration that did induce toxicity ([2]; mouse, 6 h) [ng/mL]	dose in Belzer UW solution that provided protection [3] [ng/mL]	increase of fluorescence in HUVEC over a 6 hours period, without brefeldin A (-BA) [4] [%]	micelle internalization into HUVEC (confocal microscopy, Dylight 680 fluorescence) compared to untargeted RaM [4] [%]
CO[C@H]1C[C@@H]2CC[C@@H](C)[C@@](O)(O2)C(=O)C(=O)N2CCCC[C@H]2C(=O)O[C@H]([C@H](C)C[C@@H]2CC[C@@H](O)[C@H](OC)C2)CC(=O)[C@H](C)/C=C(\C)[C@@H](O)[C@@H](OC)C(=O)[C@H](C)C[C@H](C)/C=C/C=C/C=C/1C [free rapamycin, rapamycin]	do not result in significant cell toxicity and death	3000	do not result in significant cell toxicity and death	3000	1000	–	–
Targeted Rapamycin Micelles (TRaM): rapamycin micelles bearing the cyclic peptide arginine-glycine-aspartate (cRGD) on the surface, labeled with Dylight 680	–	–	–	–	–	88	> 50
